Data taken from patent EP4631938A1, “NITROGEN-CONTAINING HETEROCYCLE WITH SEROTONIN RECEPTOR-BINDING ACTIVITY AND CARBOCYCLIC DERIVATIVE” (Shionogi & Co., Ltd, priority 2022, dated 2024).
One block for each compound: values may come before it.

Assays:
[1] = biological target: T1, human recombinant 5-HT2A receptor (Homo sapiens, UniProt P28223); experiment: Test Example 1-2: 5-HT2A receptor binding inhibition test ([3H]-Ketanserin; non-specific ligand Ketanserin); details: [3H]-Ketanserin; non-specific binding with 500 µmol/L Ketanserin; room temperature (25°C), 1.5 hours; read-out: h 5-HT2A Ki
T1 construct: expressed in transfected cells; host or cells: Jump-In HEK cells (membrane preparation)
T1 sequence (P28223 whole entry): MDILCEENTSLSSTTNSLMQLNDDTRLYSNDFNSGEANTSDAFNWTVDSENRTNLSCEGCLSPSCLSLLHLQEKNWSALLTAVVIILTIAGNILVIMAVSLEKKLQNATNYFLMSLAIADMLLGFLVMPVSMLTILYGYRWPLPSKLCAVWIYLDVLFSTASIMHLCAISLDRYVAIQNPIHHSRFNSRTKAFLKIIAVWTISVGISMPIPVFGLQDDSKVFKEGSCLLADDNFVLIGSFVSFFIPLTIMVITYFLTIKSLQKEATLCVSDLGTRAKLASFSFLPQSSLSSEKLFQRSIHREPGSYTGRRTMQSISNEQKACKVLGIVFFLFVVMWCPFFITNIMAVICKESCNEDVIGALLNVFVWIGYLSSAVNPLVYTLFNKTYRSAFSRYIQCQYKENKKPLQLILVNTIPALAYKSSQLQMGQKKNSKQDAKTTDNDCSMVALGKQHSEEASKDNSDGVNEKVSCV
Summary of the method: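 Membranes expressing the receptor were incubated with [3H]-ketanserin and compound for 1.5 h at 25 °C, then filtered onto plates presoaked in 50 mmol/L Tris-HCl pH 7.4 and scintillation-counted. Non-specific binding was defined with 500 µmol/L unlabeled ketanserin. Ki was taken from dose-response curves, with Kd set for each membrane lot by Scatchard analysis.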

[2] = biological target: T2, human recombinant 5-HT2C receptor (Homo sapiens, UniProt P28335); experiment: Test Example 2: 5-HT2C receptor binding inhibition test ([3H]-Mesulergine; non-specific ligand Serotonin HCl); details: human serotonin 5-HT2C receptor binding activity
T2 construct: expressed in transfected cells; host or cells: Jump-In HEK cells (membrane preparation)
T2 sequence (P28335 33-458): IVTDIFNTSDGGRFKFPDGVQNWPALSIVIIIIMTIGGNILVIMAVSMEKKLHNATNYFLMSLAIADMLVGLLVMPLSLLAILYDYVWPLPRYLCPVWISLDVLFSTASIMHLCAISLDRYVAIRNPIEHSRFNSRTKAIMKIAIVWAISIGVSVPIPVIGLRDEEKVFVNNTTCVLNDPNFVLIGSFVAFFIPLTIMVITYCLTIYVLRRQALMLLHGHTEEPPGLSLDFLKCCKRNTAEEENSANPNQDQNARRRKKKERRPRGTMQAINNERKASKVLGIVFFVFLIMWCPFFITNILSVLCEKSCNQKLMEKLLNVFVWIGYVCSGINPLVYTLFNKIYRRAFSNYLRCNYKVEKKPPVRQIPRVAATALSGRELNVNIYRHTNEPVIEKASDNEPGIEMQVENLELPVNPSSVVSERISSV
Summary of the method: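 Filtration binding to membranes bearing human 5-HT2C with [3H]-mesulergine, 2 h at 37°C; non-specific binding defined with 500 µmol/L serotonin HCl, total binding with vehicle. Inhibition rate computed from cpm; Ki derived from dose-response curve, with ligand Kd from Scatchard analysis of saturation binding.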

Ki [1]: 4.65 nM
Ki [2]: 1.98 nM
Compound: COCc1nc(C)c(-c2nc(Nc3ccc(-c4ccc(C(F)(F)F)nc4)cn3)c(F)cc2OCCO)c(C)n1 [Compound I-365]

Ki [1]: 0.221 nM
Ki [2]: 0.715 nM
Compound: Cn1ncc(Br)c1-c1cc(Nc2ccc(OCC(F)(F)F)cn2)ncc1OCCO [Compound I-307]

Ki [1]: 0.202 nM
Ki [2]: 5.99 nM
Compound: Cn1ncc(Br)c1-c1nc(Nc2ccc(C#N)cc2)ncc1OCCO [Compound I-352]

Ki [1]: 0.189 nM
Ki [2]: 1.38 nM
Compound: Cn1ncc(Br)c1-c1cc(Nc2ccc(OC(C)(F)F)cn2)ncc1OCCO [Compound I-301]

Ki [1]: 0.319 nM
Ki [2]: 8.53 nM
Compound: Cn1ncc(Br)c1-c1nc(Nc2ccc(C#N)cc2F)ncc1OCCO [Compound I-354]

Ki [1]: 0.225 nM
Ki [2]: 3.64 nM
Compound: Cn1ncc(Br)c1-c1cc(Nc2cc(C(F)(F)F)ccn2)c(F)cc1OCCO [Compound I-407]

Ki [1]: 0.357 nM
Ki [2]: 19 nM
Compound: CNC(=O)c1ccc(F)c(-c2cc(Nc3ncc(C(F)(F)F)cc3F)ncc2OCCO)c1 [Compound I-391]

Ki [1]: 0.188 nM
Ki [2]: 0.585 nM
Compound: Cn1ncc(Cl)c1-c1cc(Nc2ncc(OC(F)(F)F)cc2F)ncc1OCCO [Compound I-305]

Ki [1]: 2.4 nM
Ki [2]: 18.3 nM
Compound: Cc1nc(C)c(-c2cc(Nc3ncc(C(F)(F)F)cc3F)ncc2O[C@H](C)CO)c(C)n1 [Compound I-361]

Ki [1]: 0.318 nM
Ki [2]: 3.82 nM
Compound: Cn1ncc(Br)c1-c1nc(Nc2ccc(C(F)(F)F)cn2)c(Cl)cc1OCCO [Compound I-387]

Ki [1]: 1.27 nM
Ki [2]: 1.57 nM
Compound: Cc1nc(COCC(F)F)nc(C)c1-c1cc(Nc2ncc(C(F)(F)F)cc2Cl)ncc1OCCO [Compound I-375]

Ki [1]: 0.338 nM
Ki [2]: 1.38 nM
Compound: Cn1ncc(Br)c1-c1cc(Nc2ccc(C(F)(F)F)cn2)c(Cl)cc1OCCO [Compound I-400]

Ki [1]: 0.362 nM
Ki [2]: 5.79 nM
Compound: Cn1ncc(Br)c1-c1cc(Nc2cnc(C(F)(F)F)cn2)c(F)cc1OCCO [Compound I-404]

Ki [1]: 2.87 nM
Ki [2]: 4.58 nM
Compound: Cc1nc(C)c(-c2nc(Nc3ccc(C(F)(F)F)c(C)n3)c(F)cc2OCCO)c(C)n1 [Compound I-384]

Ki [1]: 0.169 nM
Ki [2]: 0.644 nM
Compound: Cn1ncc(Cl)c1-c1cc(Nc2ncc(OC(F)F)cc2F)ncc1OCCO [Compound I-304]

Ki [1]: 0.247 nM
Ki [2]: 1.37 nM
Compound: Cc1nc(C)c(-c2cc(Nc3ccc(-c4ccc(F)cc4)cn3)ncc2OCCO)c(C)n1 [Compound I-309]

Continued, compound first:

Compound: Cc1nc(OCC2CCCO2)nc(C)c1-c1cc(Nc2ncc(C(F)(F)F)cc2Cl)ncc1OCCO (racemic) [Compound I-214]
Ki [1]: 1.66 nM
Ki [2]: 8.87 nM

Compound: Cc1cc(OC(F)F)cnc1Nc1cc(-c2c(C)cnn2C)c(OCCO)cn1 [Compound I-176]
Ki [1]: 0.453 nM
Ki [2]: 6.81 nM

Compound: COCc1nc(C)c(-c2cc(Nc3ncc(-c4ccc(C#N)nc4)cc3Cl)ncc2OCCO)c(C)n1 [Compound I-244]
Ki [1]: 3.75 nM
Ki [2]: 2.87 nM

Compound: Cc1nc(C)c(-c2cc(Nc3ncc(OC(F)(F)F)cc3F)c(F)cc2OCCO)c(C)n1 [Compound I-174]
Ki [1]: 0.888 nM
Ki [2]: 2.15 nM

Compound: COCc1nc(C)c(-c2cc(Nc3ncc(OC(F)(F)F)cc3OC)ncc2OCCO)c(C)n1 [Compound I-196]
Ki [1]: 4.46 nM
Ki [2]: 5.17 nM

Compound: COCc1nc(C)c(-c2cc(Nc3ncc(C4CC4(F)F)cc3Cl)ncc2OCCO)c(C)n1 (racemic) [Compound I-194]
Ki [1]: 8.31 nM
Ki [2]: 6.01 nM

Compound: CCc1nc(C)c(-c2cc(Nc3ncc(C(F)(F)F)cc3Cl)ncc2OCCO)c(C)n1 [Compound I-221]
Ki [1]: 0.996 nM
Ki [2]: 2.23 nM

Compound: COCc1nc(C)c(-c2cc(Nc3ncc(C(F)(F)F)cc3F)c(F)cc2OCCO)c(C)n1 [Compound I-184]
Ki [1]: 3.84 nM
Ki [2]: 2.98 nM

Compound: COCc1nc(C)c(-c2cc(Nc3ncc(-c4ccc(F)cc4)cc3F)ncc2OCCO)c(C)n1 [Compound I-251]
Ki [1]: 0.325 nM
Ki [2]: 0.393 nM

Compound: Cn1ncc(Br)c1-c1nc(Nc2ccc(Cl)cn2)c(F)cc1OCCO [Compound I-278]
Ki [1]: 0.203 nM
Ki [2]: 3.56 nM

Compound: Cc1nc(C)c(-c2cc(Nc3ccc(OC(F)(F)F)cn3)ncc2OCCO)c(C)n1 [Compound I-295]
Ki [1]: 0.851 nM
Ki [2]: 7.58 nM

Compound: COCc1ccc(-c2cnc(Nc3cc(-c4c(C)nc(COC)nc4C)c(OCCO)cn3)c(Cl)c2)cc1 [Compound I-264]
Ki [1]: 0.752 nM
Ki [2]: 0.709 nM

Compound: COCc1nc(C)c(-c2cc(Nc3ncc(-c4cc(F)cc(F)c4)cc3Cl)ncc2OCCO)c(C)n1 [Compound I-258]
Ki [1]: 0.933 nM
Ki [2]: 0.301 nM

Compound: COCc1nc(C)c(-c2cc(Nc3ncc(-c4ncc(C(F)(F)F)s4)cc3Cl)ncc2OCCO)c(C)n1 [Compound I-329]
Ki [1]: 0.896 nM
Ki [2]: 0.282 nM

Compound: Cn1ncc(C#N)c1-c1nc(Nc2ccc(-c3ccc(F)cc3)cn2)c(F)cc1OCCO [Compound I-190]
Ki [1]: 0.493 nM
Ki [2]: 9.08 nM

Compound: Cc1nc(C2COC2)nc(C)c1-c1cc(Nc2ncc(C(F)(F)F)cc2Cl)ncc1OCCO [Compound I-207]
Ki [1]: 2.23 nM
Ki [2]: 6.02 nM

Compound: COCc1nc(C)c(-c2cc(Nc3ncc(-c4ncc(F)cn4)cc3Cl)ncc2OCCO)c(C)n1 [Compound I-249]
Ki [1]: 5.19 nM
Ki [2]: 4.29 nM

Compound: COCc1nc(C)c(-c2cc(Nc3ncc(C4CC(F)(F)C4)cc3Cl)ncc2OCCO)c(C)n1 [Compound I-195]
Ki [1]: 6.75 nM
Ki [2]: 2.1 nM

Compound: Cc1nc(C)c(-c2cc(Nc3ncc(OC(F)(F)F)cc3C)ncc2OCCO)c(C)n1 [Compound I-181]
Ki [1]: 0.984 nM
Ki [2]: 3.62 nM

Compound: Cn1ncc(Cl)c1-c1cc(Nc2ncc(F)cc2F)c(F)cc1OCCO [Compound I-164]
Ki [1]: 0.325 nM
Ki [2]: 2.09 nM

Compound: COCc1nc(C)c(-c2cc(Nc3ncc(-c4ccc(C#N)cc4)cc3Cl)ncc2OCCO)c(C)n1 [Compound I-241]
Ki [1]: 0.799 nM
Ki [2]: 0.637 nM

Compound: COCc1nc(C)c(-c2cc(Nc3ncc(-c4ccnc(C(F)(F)F)c4)cc3Cl)ncc2OCCO)c(C)n1 [Compound I-246]
Ki [1]: 2.7 nM
Ki [2]: 5.25 nM

Compound: Cc1nc(C)c(-c2cc(Nc3ncc(Cl)cc3C)c(F)cc2OCCO)c(C)n1 [Compound I-173]
Ki [1]: 1.42 nM
Ki [2]: 5.11 nM

Compound: COCc1nc(C)c(-c2cc(Nc3ncc(-c4cnc(C(F)(F)F)nc4)cc3Cl)ncc2OCCO)c(C)n1 [Compound I-245]
Ki [1]: 5.85 nM
Ki [2]: 1.41 nM

Compound: COCc1nc(C)c(-c2cc(Nc3ncc(-c4ccc(C#N)c(F)c4)cc3Cl)ncc2OCCO)c(C)n1 [Compound I-265]
Ki [1]: 0.972 nM
Ki [2]: 0.47 nM

Compound: Cn1ncc(Cl)c1-c1cc(Nc2ncc(C(F)(F)F)cn2)c(F)cc1OCCO [Compound I-161]
Ki [1]: 0.361 nM
Ki [2]: 1.13 nM

Compound: O=C1NCCc2c1cccc2-c1cc(Nc2ncc(C(F)(F)F)cc2F)ncc1OCCO [Compound I-227]
Ki [1]: 1.21 nM
Ki [2]: 26.7 nM

Compound: Cc1cnn(C)c1-c1cc(Nc2ncc(Cl)cc2F)c(F)cc1OCCO [Compound I-160]
Ki [1]: 0.21 nM
Ki [2]: 3.01 nM

Compound: COCc1nc(C)c(-c2cc(Nc3ncc(-c4ccc(F)cc4)cc3Cl)ncc2OCCO)c(C)n1 [Compound I-230]
Ki [1]: 0.576 nM
Ki [2]: 0.372 nM

Compound: Cn1ncc(C#N)c1-c1nc(Nc2ccc(-c3ccc(Cl)cc3)cn2)c(F)cc1OCCO [Compound I-191]
Ki [1]: 0.473 nM
Ki [2]: 5.29 nM

Compound: COCc1nc(C)c(-c2cc(Nc3ncc(OC(F)(F)F)cc3C)ncc2OCCO)c(C)n1 [Compound I-186]
Ki [1]: 1.75 nM
Ki [2]: 1.73 nM
